The source of these data is patent US20120130078A1, “INDAZOLE DERIVATIVES AS ADENOSINE MONOPHOSPHATE DEAMINASE (AMPD) INHIBITORS FOR USE IN DIABETES AND RELATED DISEASES OF METABOLIC SYNDROME” (priority 2010, published 2012).

Test [1] concerns L6 cells. The experiment in a line: Glucose uptake assay (2-deoxyglucose uptake) in L6 cells. In kind it is cell-based. The conditions noted are these: FIG. 1, 4, 10. As for the experimental part:
Glucose uptake was determined as the rate of 2-deoxy-D-[2,6-^3H]glucose uptake, using modification of a previous method (15). The cells were first incubated for 15 min with Krebs-Henseleit Bicarbonate buffer (KHB), glucose, and other agents as indicated. At this point, the labeled deoxyglucose (0.6 μCi) was added to each well and the incubation continued for 45 min. The media was aspirated, and the wells were washed three times with ice-cold KHB to remove exogenous label. The cells were lysed by the addition of 0.1% Triton-X100 (1 mL). Samples of each well were mixed with aqueous scintillation fluid and measured by liquid scintillation counting.

The subject of test [2] is L6 cells. The experiment in a line: Palmitate (fatty acid) oxidation assay in L6 cells. The class given is cell-based. The conditions noted are these: FIG. 2, 3, 11. The protocol:
Palmitate oxidation was determined by a modification of quantitative measuring the rate of ^14CO2 production from ^14C-labeled palmitic acid as described previously (24). The KHB for these incubations was supplemented with fatty-acid poor albumin, dialyzed against the same buffer (three changes). The final albumin concentration was 1%. After an initial 10 min of incubation, all samples received 2 mM carnitine and [1-^14C]-palmitic acid (1 μCi/mole), and other additions as noted, and incubations continued to the end of 3 h. Aliquots of 0.8 mL were taken from each well to an eppendorf tube. […] 200 μL of 3 M perchloric acid was carefully added to the 0.8 mL to ensure no acid was deposited on the side of the tube, and the lid was quickly closed. The tubes were incubated overnight to allow the [^14C] CO2 to be absorbed into the wick. The caps were removed with scissors and placed in 10 mL of liquid scintillation fluid for counting.

For another test, the system named is AMP deaminase (AMPD). The experiment in a line: AMP deaminase enzymatic assay (in vitro). In kind it is biochemical. The settings on record: for AMPD inhibition, comparison of three synthesized compounds: FIG. 9. The protocol:
AMP deaminase activity was measured as described by Ashby and Frieden (4). Standard assay monitored the absorbance change at 285 nm as a result of AMP conversion to IMP in a reaction volume of 2 mL containing 50 mM imidazole-HCl (pH 7.0), 2 mM AMP and 150 mM KCl. One unit of enzyme activity is defined as the amount of protein required to produce 1 μmol IMP per min at 25° C. under standard conditions.

Test [3] relates to L6 cells. Description: Ammonia assay, ammonia formation by intact cells. In kind it is cell-based. The settings on record: FIG. 7, 12. As for the experimental part: Ammonia was measured as described by Kun et al. (19). Briefly, after two hours incubation with or without 10 mM metformin, 0.5 mL of samples were added into cuvette and mixed with assay reagents (100 mM Tris buffer, 10 mM α-ketoglutaric acid, 0.24 mM NADH in 1 mL). Absorbance was measured at 340 nm with spectro-photometer (Hitachi, U-2000). 20 μL of glutamate dehydrogenase (200 μg/mL) was added into cuvette and mixed, and absorbance was measured again after 1 hour at 340 nm.

For a further test, the system named is AMPK. Description: Phosphorylation of AMPK. In kind it is cell-based.
Test [4] concerns L6 muscle cell line. Description: Lactate formation in L6 muscle cell line. In kind it is cell-based.
For test [5], the system named is cells with adenylate kinase knockout. Description: Metformin action in cells with adenylate kinase knockout (siRNA). In kind it is cell-based. The conditions noted are these: adenylate kinase knockout using siRNA; FIG. 5.
The subject of the next test is acetyl CoA carboxylase. Description: Phosphorylation of acetyl CoA carboxylase. In kind it is cell-based.
Test [6] concerns L6 muscle cell line. The experiment in a line: Glycogen synthesis in L6 muscle cell line. In kind it is cell-based.

On to `[NH-]c1c[n+](N2CCOCC2)no1` [SIN-1], for which the “glucose transport / glucose uptake” value with L6 cells [1] is “stimulation of glucose transport”. The “palmitate / fatty acid oxidation” value with L6 cells [2] is given as “inhibits fatty acid oxidation”.

In the case of `NC(=O)c1n[nH]c2ccccc12` [SKTT-1, 1H-indazole-3-carboxamide], the “AMPD inhibition curves, potency compared with metformin” value in the test with AMP deaminase (AMPD) (FIG. 8, compared with metformin) is listed as “more potent”. Further, the “AMPD inhibition, comparison of three synthesized compounds” value (shortened to “AMPD inhibition, comparison”) in the test on AMP deaminase (AMPD) is recorded as “similar”. For the same compound, in the test with L6 cells [3], the ammonia formation entry is given as “suppressed ammonia formation”. For the same compound, the “glucose transport / glucose uptake” value in the test with L6 cells [1] was “stimulated glucose uptake”. Besides, the “palmitate / fatty acid oxidation” value in the test on L6 cells [2] is recorded as “replicated the metformin stimulation of fatty acid oxidation”.

Take `COC(=O)c1n[nH]c2ccccc12` [SKTT-2, methyl 1H-indazole-3-carboxylate]: the “AMPD inhibition, comparison” value in the test on AMP deaminase (AMPD) was “similar”. For the same compound, the ammonia formation entry in the test with L6 cells [3] is listed as “suppressed ammonia formation”. Further, in the test on L6 cells [1], the “glucose transport / glucose uptake” value was “stimulated glucose uptake”. Moreover, the “palmitate / fatty acid oxidation” value in the test on L6 cells [2] is reported as “replicated the metformin stimulation of fatty acid oxidation”.

For `COC(=O)c1cccc2[nH]ncc12` [SKTT-12, methyl 1H-indazole-4-carboxylate], the “AMPD inhibition, comparison” value in the test with AMP deaminase (AMPD) is given as “somewhat less effective”.

As to `CN(C)C(=N)N=C(N)N` [metformin], in the test on AMPK, the “phosphorylation of the AMPK” value is given as “direct phosphorylation of the AMPK”. The lactate formation result with L6 muscle cell line [4] was “stimulation”. Moreover, the “AMPD activity measured in vitro” value in the test on AMP deaminase (AMPD) (FIG. 6) is “inhibited AMPD activity”. The ammonia formation result with L6 cells [3] is “decrease in ammonia formation”. The “effect of adenylate kinase deletion on metformin action” value in test [5] is “no effect”. In addition, the “glucose transport / glucose uptake” value in the test with L6 cells [1] is “stimulation of glucose transport”. Also, the “palmitate / fatty acid oxidation” value with L6 cells [2] is on record as “stimulation”. For the same compound, in the test with acetyl CoA carboxylase, the “phosphorylation of acetyl CoA carboxylase” value was “phosphorylation”. In the test with L6 muscle cell line [6], the glycogen synthesis entry was “inhibition of glycogen synthesis”.

With `C=C(C)[C@H]1Cc2c(ccc3c2O[C@@H]2COc4cc(OC)c(OC)cc4[C@@H]2C3=O)O1` [rotenone], in the test on L6 cells [1], the “glucose transport / glucose uptake” value was “does increase glucose uptake”. The “palmitate / fatty acid oxidation” value in the test with L6 cells [2] was “leads only to inhibition of fatty acid oxidation”.
